The values below come from ChEMBL document CHEMBL1150503, “Design, synthesis and molecular modeling of 3-acylamino-2- Carboxyindole NMDA receptor glycine-site antagonists” (Bioorg Med Chem Lett, 1991).

In general, IC50 refers to the concentration that inhibits the measured activity by half.

Each structure is given as a SMILES string.

This assay concerns the target Glutamate receptor ionotropic, NMDA 1 (Rattus norvegicus, UniProt P35439). Put plainly: Ability of compound to compete with [3H]glycine for the strychnine-insensitive NMDA receptor glycine binding sites on rat cortical and hippocampus. The assay is classed as tissue-based.
As to `O=C(O)CSc1c(C(=O)O)[nH]c2cc(Cl)cc(Cl)c12`, the IC50 amounted to 100 nM.

For the compound `O=C(O)C(=O)Nc1c(C(=O)O)[nH]c2cc(Cl)cc(Cl)c12`, the IC50 came to 170 nM.

`CN(C(=O)c1ccccc1)c1c(C(=O)O)[nH]c2cc(Cl)cc(Cl)c12` yielded a concentration for half-maximal inhibition (IC50) of 270 nM.

Regarding `O=C(O)c1cc(O)c2c(Cl)cc(Cl)cc2n1`, the IC50 stood at 140 nM.

As to `CN(C(=O)C(=O)O)c1c(C(=O)O)[nH]c2cc(Cl)cc(Cl)c12`, the IC50 was determined as 9500 nM.

As for `O=C(Nc1c(C(=O)O)[nH]c2cc(Cl)ccc12)c1ccccc1`, the IC50 amounted to 3000 nM.

In turn, `CN(C(=O)c1ccccc1)c1c(C(=O)O)[nH]c2cc(Cl)ccc12` came in with an IC50 of 110 nM.

In the case of `O=C(Nc1c(C(=O)O)[nH]c2cc(Cl)cc(Cl)c12)c1ccccc1`, the IC50 came to 17000 nM.

The compound `O=C(O)CN(C(=O)c1ccccc1)c1c(C(=O)O)[nH]c2cc(Cl)cc(Cl)c12` came in with an IC50 of 400 nM.
